Assay results reported in ChEMBL document CHEMBL1153889, “Psammaplin A as a general activator of cell-based signaling assays via HDAC inhibition and studies on some bromotyrosine derivatives” (Bioorg Med Chem, 2009).
The source made the active and inactive calls. The rule behind the calls is not given here.

Columns and labels:
[1] = biological target: Protein Wnt-3a (Mus musculus) (UniProt P27467); test: Activation of mouse Wnt3a signaling expressed in HEK293 STF cells assessed as increase in transcriptional activity after 24 hrs by luciferase reporter gene-based lactate dehydrogenase assay; assay type: cell-based
HEK293 = test: Activation of Neuropeptide S receptor I107 mutant expressed in HEK293 cells assessed as increase in transcriptional activity after 24 hrs by luciferase reporter gene-based lactate dehydrogenase assay; assay type: cell-based

Sequence of Protein Wnt-3a (Mus musculus) (P27467 whole entry): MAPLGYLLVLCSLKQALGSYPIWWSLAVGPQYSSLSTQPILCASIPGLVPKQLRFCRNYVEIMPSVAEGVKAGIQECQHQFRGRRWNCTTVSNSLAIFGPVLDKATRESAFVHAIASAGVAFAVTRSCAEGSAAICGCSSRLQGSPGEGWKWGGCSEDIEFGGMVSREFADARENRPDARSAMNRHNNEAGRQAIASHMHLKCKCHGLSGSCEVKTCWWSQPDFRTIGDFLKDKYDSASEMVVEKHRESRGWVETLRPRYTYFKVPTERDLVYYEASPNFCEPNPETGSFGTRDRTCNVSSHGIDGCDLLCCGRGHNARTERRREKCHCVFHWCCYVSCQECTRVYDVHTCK

## Nc1ccccc1NC(=O)c1ccc(CNC(=O)OCc2cccnc2)cc1
[1]
  Activity: Active

## O=C(NCCSSCCNC(=O)/C(Cc1ccc(O)c(Br)c1)=N/O)/C(Cc1ccc(O)c(Br)c1)=N/O
HEK293
  Activity: Active
[1]
  Activity: Active

## CC(/C=C/C(=O)NO)=C\[C@@H](C)C(=O)c1ccc(N(C)C)cc1
[1]
  Activity: Active

## O=C(CCCCCCC(=O)Nc1ccccc1)NO
[1]
  Activity: Active
